Key:
Conditions in all cases: human
[1] = system: Hepatotoxicity; assay: FDA HLAED, alkaline phosphatase increase
[2] = system: Hepatotoxicity; assay: FDA HLAED, liver enzyme composite activity
[3] = system: Hepatotoxicity; assay: FDA HLAED, lactate dehydrogenase (LDH) increase
[4] = system: Hepatotoxicity; assay: FDA HLAED, serum glutamic oxaloacetic transaminase (SGOT) increase
[5] = system: Hepatotoxicity; assay: FDA HLAED, gamma-glutamyl transferase (GGT) increase
[6] = system: Hepatotoxicity; assay: FDA HLAED, serum glutamic pyruvic transaminase (SGPT) increase
Wherever GGT Increase - Index Value is given: reference of the scale not given here.
Wherever LDH Increase - Index Value is given: reference of the scale not given here.

## CCC(=O)O[C@H]1CC[C@H]2[C@@H]3CCC4=CC(=O)CC[C@]4(C)[C@H]3CC[C@]12C [TESTOSTERONE PROPIONATE]
[1]
  Alkaline Phosphatase Increase - Activity Score: Inactive
  Alkaline Phosphatase Increase - Index Value: 0
  Alkaline Phosphatase Increase - Number of Reports: < 4
[2]
  Composite Activity - Active: 0
  Composite Activity - Marginal: 0
  Composite Activity - Score: Inactive
[3]
  LDH Increase - Activity Score: Inactive
  LDH Increase - Index Value: 2.4
  LDH Increase - Number of Reports: < 4
[4]
  SGOT Increase - Activity Score: Inactive
  SGOT Increase - Index Value: 4.8
  SGOT Increase - Number of Reports: < 4
[5]
  GGT Increase - Activity Score: Inactive
  GGT Increase - Index Value: 4.8
  GGT Increase - Number of Reports: < 4
[6]
  SGPT Increase - Activity Score: Inactive
  SGPT Increase - Index Value: 7.2
  SGPT Increase - Number of Reports: < 4

## C[C@]12CC[C@H]3[C@@H](CCC4=CC(=O)CC[C@@]43C)[C@@H]1CC[C@@H]2O [TESTOSTERONE]
[1]
  Alkaline Phosphatase Increase - Activity Score: Inactive
  Alkaline Phosphatase Increase - Index Value: 0
  Alkaline Phosphatase Increase - Number of Reports: < 4
[2]
  Composite Activity - Active: 0
  Composite Activity - Marginal: 0
  Composite Activity - Score: Inactive
[3]
  LDH Increase - Activity Score: Inactive
  LDH Increase - Index Value: 2.4
  LDH Increase - Number of Reports: < 4
[4]
  SGOT Increase - Activity Score: Inactive
  SGOT Increase - Index Value: 4.8
  SGOT Increase - Number of Reports: < 4
[5]
  GGT Increase - Activity Score: Inactive
  GGT Increase - Index Value: 4.8
  GGT Increase - Number of Reports: < 4
[6]
  SGPT Increase - Activity Score: Inactive
  SGPT Increase - Index Value: 7.2
  SGPT Increase - Number of Reports: < 4

## Cn1c(=O)c2[nH]cnc2n(C)c1=O.O [THEOPHYLLINE]
[1]
  Alkaline Phosphatase Increase - Activity Score: Inactive
  Alkaline Phosphatase Increase - Index Value: 0
  Alkaline Phosphatase Increase - Number of Reports: < 4
[2]
  Composite Activity - Active: 0
  Composite Activity - Marginal: 0
  Composite Activity - Score: Inactive
[3]
  LDH Increase - Activity Score: Inactive
  LDH Increase - Index Value: 0
  LDH Increase - Number of Reports: < 4
[4]
  SGOT Increase - Activity Score: Inactive
  SGOT Increase - Index Value: 0
  SGOT Increase - Number of Reports: < 4
[5]
  GGT Increase - Activity Score: Inactive
  GGT Increase - Index Value: 0
  GGT Increase - Number of Reports: < 4
[6]
  SGPT Increase - Activity Score: Inactive
  SGPT Increase - Index Value: 0
  SGPT Increase - Number of Reports: < 4

## Clc1ccccc1CN1CCc2sccc2C1 [TICLOPIDINE]
[1]
  Alkaline Phosphatase Increase - Activity Score: Inactive
  Alkaline Phosphatase Increase - Index Value: 0
  Alkaline Phosphatase Increase - Number of Reports: < 4
[2]; Liver
  Composite Activity - Active: 0
  Composite Activity - Marginal: 0
  Composite Activity - Score: Inactive
[3]
  LDH Increase - Activity Score: Inactive
  LDH Increase - Index Value: 0
  LDH Increase - Number of Reports: < 4
[4]
  SGOT Increase - Activity Score: Inactive
  SGOT Increase - Index Value: 0
  SGOT Increase - Number of Reports: < 4
[5]
  GGT Increase - Activity Score: Inactive
  GGT Increase - Index Value: 0
  GGT Increase - Number of Reports: < 4
[6]
  SGPT Increase - Activity Score: Inactive
  SGPT Increase - Index Value: 0
  SGPT Increase - Number of Reports: < 4

## CC(C)(C)NC[C@H](O)COc1nsnc1N1CCOCC1 [TIMOLOL]
[1]
  Alkaline Phosphatase Increase - Activity Score: Inactive
  Alkaline Phosphatase Increase - Index Value: 0.1
  Alkaline Phosphatase Increase - Number of Reports: < 4
[2]
  Composite Activity - Active: 0
  Composite Activity - Marginal: 0
  Composite Activity - Score: Inactive
[3]
  LDH Increase - Activity Score: Inactive
  LDH Increase - Index Value: 0.1
  LDH Increase - Number of Reports: < 4
[4]
  SGOT Increase - Activity Score: Inactive
  SGOT Increase - Index Value: 0.1
  SGOT Increase - Number of Reports: < 4
[5]
  GGT Increase - Activity Score: Inactive
  GGT Increase - Index Value: 0
  GGT Increase - Number of Reports: < 4
[6]
  SGPT Increase - Activity Score: Inactive
  SGPT Increase - Index Value: 0.1
  SGPT Increase - Number of Reports: < 4

## Clc1ccc(C(Cn2ccnc2)OCc2ccsc2Cl)c(Cl)c1 (configuration not stated) [TIOCONAZOLE]
[1]
  Alkaline Phosphatase Increase - Activity Score: Inactive
  Alkaline Phosphatase Increase - Index Value: 0
  Alkaline Phosphatase Increase - Number of Reports: < 4
[2]; Liver
  Composite Activity - Active: 0
  Composite Activity - Marginal: 0
  Composite Activity - Score: Inactive
[3]
  LDH Increase - Activity Score: Inactive
  LDH Increase - Index Value: 0
  LDH Increase - Number of Reports: < 4
[4]
  SGOT Increase - Activity Score: Inactive
  SGOT Increase - Index Value: 0
  SGOT Increase - Number of Reports: < 4
[5]
  GGT Increase - Activity Score: Inactive
  GGT Increase - Index Value: 0
  GGT Increase - Number of Reports: < 4
[6]
  SGPT Increase - Activity Score: Inactive
  SGPT Increase - Index Value: 0
  SGPT Increase - Number of Reports: < 4

## CC(S)C(=O)NCC(=O)O (configuration not stated) [TIOPRONIN]
[1]
  Alkaline Phosphatase Increase - Activity Score: Inactive
  Alkaline Phosphatase Increase - Index Value: 0
  Alkaline Phosphatase Increase - Number of Reports: < 4
[2]
  Composite Activity - Active: 0
  Composite Activity - Marginal: 0
  Composite Activity - Score: Inactive
[3]
  LDH Increase - Activity Score: Inactive
  LDH Increase - Index Value: 0
  LDH Increase - Number of Reports: < 4
[4]
  SGOT Increase - Activity Score: Inactive
  SGOT Increase - Index Value: 0
  SGOT Increase - Number of Reports: < 4
[5]
  GGT Increase - Activity Score: Inactive
  GGT Increase - Index Value: 0
  GGT Increase - Number of Reports: < 4
[6]
  SGPT Increase - Activity Score: Inactive
  SGPT Increase - Index Value: 0
  SGPT Increase - Number of Reports: < 4

## Clc1ccc2nsnc2c1NC1=NCCN1 [TIZANIDINE]
[1]
  Alkaline Phosphatase Increase - Activity Score: Inactive
  Alkaline Phosphatase Increase - Index Value: 8.3
  Alkaline Phosphatase Increase - Number of Reports: < 4
[2]; Liver
  Composite Activity - Active: 1
  Composite Activity - Marginal: 0
  Composite Activity - Score: Inactive
[3]
  LDH Increase - Activity Score: Inactive
  LDH Increase - Index Value: 8.3
  LDH Increase - Number of Reports: < 4
[4]
  SGOT Increase - Activity Score: Inactive
  SGOT Increase - Index Value: 16.5
  SGOT Increase - Number of Reports: < 4
[5]
  GGT Increase - Activity Score: Inactive
  GGT Increase - Index Value: 8.3
  GGT Increase - Number of Reports: < 4
[6]
  SGPT Increase - Activity Score: Active
  SGPT Increase - Index Value: 24.8
  SGPT Increase - Number of Reports: < 4

## Cc1cccc(C)c1NC(=O)C(C)N (configuration not stated) [TOCAINIDE]
[1]
  Alkaline Phosphatase Increase - Activity Score: Inactive
  Alkaline Phosphatase Increase - Index Value: 1.7
  Alkaline Phosphatase Increase - Number of Reports: >= 4
[2]
  Composite Activity - Active: 0
  Composite Activity - Marginal: 1
  Composite Activity - Score: Inactive
[3]
  LDH Increase - Activity Score: Inactive
  LDH Increase - Index Value: 1.7
  LDH Increase - Number of Reports: >= 4
[4]
  SGOT Increase - Activity Score: Marginally Active
  SGOT Increase - Index Value: 3.5
  SGOT Increase - Number of Reports: >= 4
[5]
  GGT Increase - Activity Score: Inactive
  GGT Increase - Index Value: 0
  GGT Increase - Number of Reports: < 4
[6]
  SGPT Increase - Activity Score: Inactive
  SGPT Increase - Index Value: 2.2
  SGPT Increase - Number of Reports: >= 4
